Data published in paper PMC10796410 (Cancer Chemotherapy and Pharmacology, 2023).
Several values for one entry are separate records, joined by “and”; a condition that tells them apart may be missing. Equal entries are not always repeated. Where two headings read alike, the source gives them in different places.

Tests used:
[1] = Plasma pharmacokinetics of metformin in rats after a single oral dose, alone or with olaparib (HPLC-UV, non-compartmental); format: in vivo, Wistar rats; conditions: for Cmax / k el: po; for Cmax / k el / Cl/F / ka / t0.5: rat plasma, n = 8, mean ± SD
Protocol: Adult male Wistar rats (weight 380–530 g) were used in the study. The animals were maintained under standard breeding conditions with a 12/12 h light–dark cycle (lights on at 06.00, lights off at 18.00) at constant room temperature (23 ± 2 °C), relative humidity of 55 ± 10% and given ad libitum access to food and water. The animals were allowed to acclimatize for a week before the beginning of the experiments. The rats were divided into three groups. […] The solution for oral metformin administration was prepared in saline at a single dose of 100 mg/kg [15]. Drugs were orally administered to rats by gavage between 7:00 a.m. and 8:00 a.m. Before administration (0 h) and at different time intervals after the administration, i.e., 0.085, 0.5, 1, 2, 4, 6, 8, 10, and 24 h [16], blood was collected from the tail vein of each rat into 1.5-ml heparinized Eppendorf (EP) tubes. The blood samples were centrifuged at 5000 rpm for 10 min, and the plasma was transferred to new centrifuge tubes and then stored at – 80 °C.
High-performance liquid chromatography (HPLC) with ultraviolet (UV) detection (HPLC Waters 2695 Separations Module with autosampler, Waters 2487 Dual Absorbance Detector) [17] after a liquid–liquid extraction with a mixture of 1-butanol:n-heptane (50:50, v/v) was applied to measure the concentrations of metformin in the rats’ plasma. An analytical Symmetry® C8 column (250 × 4.6 mm, 5.0 μm; Waters Corporation, Milford, MA, USA) and a mobile phase consisting of 0.1 M ammonium formate solution, pH 6.3 with an isocratic flow rate of 1.0 ml/min were used. The volume of each injection was 20 µl, and the retention times for metformin and internal standard (acetaminophen) were 3.5 and 11.2 min, respectively.
The maximum plasma concentration (Cmax) and the time to reach the Cmax (tmax) were obtained directly from the measured values. All of the above-mentioned parameters underwent statistical analysis.

[2] = tested on: epithelial ovarian cancer cell lines; conditions: drugs given separately or co-administered; cited from earlier work
[3] = male, Wistar, rat, plasma, 100 mg/kg, IIMET: metformin 100 mg/kg b.w. oral single dose alone
[4] = male, Wistar, rat, plasma, 100 mg/kg, IMET+OLA: metformin 100 mg/kg b.w. + olaparib 100 mg/kg b.w. oral single dose
[5] = metformin, rats, with olaparib / alone
[6] = IIMET: metformin 100 mg/kg b.w. oral single dose alone
[7] = IMET+OLA: metformin 100 mg/kg b.w. + olaparib 100 mg/kg b.w. oral single dose
[8] = rats, co-administered with olaparib vs. metformin alone
[9] = rats, concomitant olaparib and metformin

concentration at 0.083 h ([1]; male, Wistar, rat, plasma, oral, 100 mg/kg, t 0.083 h, IIMET (metformin alone), group mean, read-out: Cmet, S (group mean)): 146 ng/mL
concentration at 1 h ([1]; male, Wistar, rat, plasma, oral, 100 mg/kg, t 1 h, IIMET (metformin alone), group mean, read-out: Cmet, S (group mean)): 397 ng/mL
concentration at 2 h ([1]; male, Wistar, rat, plasma, oral, 100 mg/kg, t 2 h, IIMET (metformin alone), group mean, read-out: Cmet, S (group mean)): 285 ng/mL
concentration at 6 h ([1]; male, Wistar, rat, plasma, oral, 100 mg/kg, t 6 h, IIMET (metformin alone), group mean, read-out: Cmet, S (group mean)): 156 ng/mL
concentration at 8 h ([1]; male, Wistar, rat, plasma, oral, 100 mg/kg, t 8 h, IIMET (metformin alone), group mean, read-out: Cmet, S (group mean)): 163 ng/mL
concentration at 10 h ([1]; male, Wistar, rat, plasma, oral, 100 mg/kg, t 10 h, IIMET (metformin alone), group mean, read-out: Cmet, S (group mean)): 133 ng/mL
concentration at 24 h ([1]; male, Wistar, rat, plasma, oral, 100 mg/kg, t 24 h, IIMET (metformin alone), group mean, read-out: Cmet, S (group mean)): 112 ng/mL
concentration at 0.083 h ([1]; male, Wistar, rat, plasma, oral, t 0.083 h, IMET+OLA (metformin and olaparib), group mean, read-out: Cmet, S (group mean)): 140 ng/mL
concentration at 0.5 h ([1]; male, Wistar, rat, plasma, oral, t 0.5 h, IMET+OLA (metformin and olaparib), group mean, read-out: Cmet, S (group mean)): 590 ng/mL
concentration at 1 h ([1]; male, Wistar, rat, plasma, oral, t 1 h, IMET+OLA (metformin and olaparib), group mean, read-out: Cmet, S (group mean)): 968 ng/mL
concentration at 2 h ([1]; male, Wistar, rat, plasma, oral, t 2 h, IMET+OLA (metformin and olaparib), group mean, read-out: Cmet, S (group mean)): 858 ng/mL
concentration at 4 h ([1]; male, Wistar, rat, plasma, oral, t 4 h, IMET+OLA (metformin and olaparib), group mean, read-out: Cmet, S (group mean)): 734 ng/mL
concentration at 6 h ([1]; male, Wistar, rat, plasma, oral, t 6 h, IMET+OLA (metformin and olaparib), group mean, read-out: Cmet, S (group mean)): 626 ng/mL
concentration at 10 h ([1]; male, Wistar, rat, plasma, oral, t 10 h, IMET+OLA (metformin and olaparib), group mean, read-out: Cmet, S (group mean)): 334 ng/mL
concentration at 24 h ([1]; male, Wistar, rat, plasma, oral, t 24 h, IMET+OLA (metformin and olaparib), group mean, read-out: Cmet, S (group mean)): 182 ng/mL
Cmax [1, 3]: 450 ± 290 ng/mL
k el [1, 3]: 8.89e-06 s⁻¹
Cmax [1, 4]: 1250 ± 800 ng/mL
k el [1, 4]: 1.5e-05 s⁻¹
IMET+OLA/IIMET ratio for AUC0-t [1, 5]: 2.59
IMET+OLA/IIMET ratio for AUC0→∞ [1, 5]: 1.74
IMET+OLA/IIMET ratio for Cmax [1, 5]: 2.78
ka [1, 6]: 0.41 ± 0.25 (62.4) h^−1
t0.5 [1, 6]: 26.54 ± 14.52 (54.7) h
ka [1, 7]: 0.59 ± 0.17 (29.7) h^−1
t0.5 [1, 7]: 14.95 ± 6.04 (40.4) h
decrease of metformin Cl/F in the presence of olaparib [1, 8]: 43.4%
decrease of metformin Vd/F in the presence of olaparib [1, 8]: 65.1%
increase of metformin AUC0-t when co-administered with olaparib [1, 8]: 159.8%
increase of metformin AUC0-∞ when co-administered with olaparib [1, 8]: 74.1%
increase of metformin Cmax in the presence of olaparib [1, 8]: 177.8%
increase of metformin AUC on concomitant olaparib [1, 9]: 2.6 times
increase of metformin Cmax on concomitant olaparib [1, 9]: 2.8 times
SMILES: CN(C)C(=N)N=C(N)N [metformin, Metformin]
Cl/F [1, 6]: 6.31 ± 1.48 l/h and 6.31 ± 1.48 (23.5) l/h
Cl/F [1, 7]: 3.57 ± 1.26 l/h and 3.57 ± 1.26 (35.34) l/h
Cmet ([1]; t 0.083 h, IIMET (metformin alone), individual rats 17-24): 0.139 µg/mL and 0.07 µg/mL and 0.274 µg/mL and 0.12 µg/mL and 0.149 µg/mL and 0.135 µg/mL and 0.136 µg/mL and 0.145 µg/mL
Cmet ([1]; t 0.5 h, IIMET (metformin alone), individual rats 17-24): 0.153 µg/mL and 0.15 µg/mL and 0.313 µg/mL and 0.434 µg/mL and 0.58 µg/mL and 0.179 µg/mL and 0.143 µg/mL and 0.118 µg/mL
Cmet ([1]; t 0.5 h, IMET+OLA (metformin and olaparib), individual rats 9-16): 0.305 µg/mL and 0.586 µg/mL and 0.526 µg/mL and 1.222 µg/mL and 0.663 µg/mL and 0.324 µg/mL and 0.506 µg/mL
Cmet ([1]; t 1 h, IIMET (metformin alone), individual rats 17-24): 0.174 µg/mL and 0.18 µg/mL and 1.014 µg/mL and 0.544 µg/mL and 0.499 µg/mL and 0.32 µg/mL and 0.159 µg/mL and 0.287 µg/mL
Cmet ([1]; t 1 h, IMET+OLA (metformin and olaparib), individual rats 9-16): 0.543 µg/mL and 0.726 µg/mL and 0.856 µg/mL and 1.358 µg/mL and 0.97 µg/mL and 2.359 µg/mL and 0.185 µg/mL and 0.747 µg/mL
Cmet ([1]; t 2 h, IIMET (metformin alone), individual rats 17-24): 0.23 µg/mL and 0.17 µg/mL and 0.418 µg/mL and 0.681 µg/mL and 0.209 µg/mL and 0.126 µg/mL and 0.165 µg/mL and 0.28 µg/mL
Cmet ([1]; t 2 h, IMET+OLA (metformin and olaparib), individual rats 9-16): 0.528 µg/mL and 0.55 µg/mL and 1.159 µg/mL and 2.443 µg/mL and 1.095 µg/mL and 0.402 µg/mL and 0.242 µg/mL and 0.446 µg/mL
Cmet ([1]; t 4 h, IIMET (metformin alone), individual rats 17-24): 0.113 µg/mL and 0.13 µg/mL and 0.27 µg/mL and 0.646 µg/mL and 0.162 µg/mL
Cmet ([1]; t 4 h, IMET+OLA (metformin and olaparib), individual rats 9-16): 0.578 µg/mL and 0.585 µg/mL and 1.642 µg/mL and 1.111 µg/mL and 0.694 µg/mL and 0.502 µg/mL and 0.361 µg/mL and 0.396 µg/mL
Cmet ([1]; t 6 h, IMET+OLA (metformin and olaparib), individual rats 9-16): 0.469 µg/mL and 0.284 µg/mL and 1.584 µg/mL and 1.082 µg/mL and 0.494 µg/mL and 0.321 µg/mL and 0.41 µg/mL and 0.368 µg/mL
Cmet ([1]; t 8 h, IMET+OLA (metformin and olaparib), individual rats 9-16): 0.57 µg/mL and 0.234 µg/mL and 1.165 µg/mL and 0.793 µg/mL and 0.485 µg/mL and 0.275 µg/mL and 0.247 µg/mL and 0.287 µg/mL
Cmet ([1]; t 10 h, IMET+OLA (metformin and olaparib), individual rats 9-16): 0.281 ug/ml and 0.155 ug/ml and 0.738 ug/ml and 0.33 ug/ml and 0.444 ug/ml and 0.268 ug/ml (2×) and 0.186 ug/ml
Cmet ([1]; t 24 h, IMET+OLA (metformin and olaparib), individual rats 9-16): 0.133 µg/mL and 0.13 µg/mL and 0.334 µg/mL and 0.18 µg/mL and 0.236 µg/mL and 0.141 µg/mL and 0.117 µg/mL and 0.187 µg/mL
percentage of late apoptotic cells [2]: 8.2%
